Assay results taken from patent US20230126992A1, “Antibacterial Antiviral Pharmaceutical Composition and Application Thereof” (priority 2020, published 2023).
Where “and” joins values, the source holds several entries; their conditions need not be identical. Equal values may be shown once. Where a name gives a salt, the structure may show the parent alone. Read-outs that look alike come from different tables or passages of the source.

Assays:
[1] = test system: asthma of guinea pigs induced by acetylcholine and histamine phosphate; test: Asthmatic guinea pigs induced by acetylcholine combined with histamine phosphate (Example 3)
[2] = test system: asthma of guinea pigs induced by acetylcholine and histamine phosphate; test: Asthmatic guinea pigs induced by acetylcholine combined with histamine phosphate (Example 9)
influenza virus FM1 [3] = format: in vivo, ICR mice; conditions: dose 27.5 mg/kg, 7 days
influenza virus FM1 [4] = format: in vivo, ICR mice; conditions: dose 27.5 mg/kg
influenza virus FM1 [5] = format: in vivo, ICR mice
acute pharyngitis rats = test: Acute pharyngitis model in rat, serum IL-6 and TNF-α by ELISA; conditions: dose 5 mg/kg, 3 days
[6] = test system: tracheal excretion of phenol red of mice; test: Tracheal excretion of phenol red in mice; conditions: dose 30 mg/kg intragastric, 7 days; 546 nm
[7] = test system: capillary discharge sputum volume in rats; test: Capillary discharge sputum volume in rats (Example 3); conditions: dose 200 mg/kg intragastric, 7 days; 2 h collection
[8] = test system: capillary discharge sputum volume in rats; test: Capillary discharge sputum volume in rats (Example 9); conditions: dose 0.2 g/kg intragastric, 7 days
SARS-CoV-2 [9] = conditions: for Inhibition rate to SARS-CoV-2 induced cell death: drug 1 hour after infection
Vero E6 cells = test: Toxicity test to Vero E6 cells (CCK8); conditions: 3 days
SARS-CoV-2 [10] = test: microbe, parasite or virus in culture
SARS-CoV-2 [11] = test: Inhibition of Vero E6 cell death induced by SARS-CoV-2, simultaneous addition of drug and virus; conditions: for Inhibition rate to SARS-CoV-2 induced cell death: simultaneous addition
[12] = test system: concentrated ammonia water induced cough in mice; test: Concentrated ammonia water induced cough test in mice (Example 3); format: in vivo, ICR mice; conditions: dose 20 mg/kg intragastric, 7 d
[13] = test system: concentrated ammonia water induced cough in mice; test: Concentrated ammonia water induced cough test in mice (Example 9, dropping pills); format: in vivo, ICR mice; conditions: dose 0.02 g/kg intragastric, 7 days
[14] = test system: LPS-induced fever in rats; test: LPS induced rat fever model; conditions: dose 200 mg/kg
SARS-CoV-2 [15] = test: Test of direct killing of virus; format: cell-based
[16] = dose 60 mg/kg intragastric, 7 d
[17] = dose 0.06 g/kg intragastric, 7 days
[18] = lung tissue homogenate, dose 27.5
[19] = addition of the drug after infection
[20] = concentration 0.064 μM, 0.064 µM
[21] = simultaneous addition of the drug and virus

Cn1c(=O)c2[nH]cnc2n(C)c1=O [aminophylline]
asthma incubation period, Pre-administration ([1]; 60 mg/kg group, before administration (baseline)): 33.1 ± 9.2 s | asthma incubation period, Post-administration [1, 16]: 123.4 ± 50.3 s | asthma incubation period, extension value (post-pre) [1, 16]: 90.3 ± 51.1 s | Asthma incubation period, pre-administration ([2]; 0.06 g/kg group, before administration (baseline)): 36.9 ± 5.8 s | asthma incubation period, Post-administration [2, 17]: 95.3 ± 37.6 s | asthma incubation period, extension value (post-pre) [2, 17]: 58.4 ± 32.1 s

CCOC(=O)C1=C[C@@H](OC(CC)CC)[C@H](NC(C)=O)[C@@H](N)C1 [oseltamivir]
Lung index (influenza virus FM1 [3]): 0.95 ± 0.13 | Lung index inhibition rate (influenza virus FM1 [3]): 41.0% | Lung index (influenza virus FM1 [4]): 0.89 ± 0.17 | Lung index (influenza virus FM1 [5]; dose 27.5 mg/kg intraperitoneal, 7 days): 0.89 ± 0.20 | IL-8 (influenza virus FM1 [5]; [18]): 80.3 ± 15.3 pg/mL | TNF-α (influenza virus FM1 [5]; [18]): 65.2 ± 17.5 pg/mL

C[C@@H]1C[C@H]2[C@@H]3CCC4=CC(=O)C=C[C@]4(C)[C@@]3(F)[C@@H](O)C[C@]2(C)[C@@]1(O)C(=O)CO [dexamethasone]
IL-6 (acute pharyngitis rats): 146.3 ± 10.4 pg/mL | TNF-α (acute pharyngitis rats): 218.2 ± 5.8 pg/mL

Nc1c(Br)cc(Br)cc1CN[C@H]1CC[C@H](O)CC1 [ambroxol hydrochloride]
Tracheal excretion amount of phenol red [6]: 0.566 ± 0.201 OD value

N[C@@H](CSCC(=O)O)C(=O)O [carbocisteine]
Sputum excretion volume [7]: 18.11 ± 4.32 cm | Sputum excretion volume [8]: 21.56 ± 4.41 cm

CCC(CC)COC(=O)[C@H](C)N[P@](=O)(OC[C@H]1O[C@@](C#N)(c2ccc3c(N)ncnn23)[C@H](O)[C@@H]1O)Oc1ccccc1 [Remdesivir]
IC50 (SARS-CoV-2 [9]; [19]): 734 nM and 915 nM | TI (CC50/IC50) (SARS-CoV-2 [9]; [19]): > 242.42 | Inhibition rate to SARS-CoV-2 induced cell death (SARS-CoV-2 [9]; [20]): 6.51 ± 7.08% | Inhibition rate to SARS-CoV-2 induced cell death (SARS-CoV-2 [9]; concentration 0.32 μM, 0.32 µM): 28.39 ± 11.56% | Inhibition rate to SARS-CoV-2 induced cell death (SARS-CoV-2 [9]; concentration 1.6 μM, 1.6 µM): 53.50 ± 3.37% | Inhibition rate to SARS-CoV-2 induced cell death (SARS-CoV-2 [9]; concentration 8 μM, 8 µM): 92.29 ± 6.68% | Inhibition rate to SARS-CoV-2 induced cell death (SARS-CoV-2 [9]; concentration 40 μM, 40 µM): 94.31 ± 5.01% | Inhibition rate to SARS-CoV-2 induced cell death (SARS-CoV-2 [9]; concentration 200 μM, 200 µM): 98.83 ± 2.97% | Cell survival rate (Vero E6 cells; concentration 0.064 μM): 101.58 ± 3.33% and 95.44 ± 10.01% | Cell survival rate (Vero E6 cells; concentration 0.32 μM): 99.55 ± 10.53% and 93.59 ± 6.96% | Cell survival rate (Vero E6 cells; concentration 1.6 μM): 91.37 ± 10.73% and 98.11 ± 7.16% | Cell survival rate (Vero E6 cells; concentration 8 μM): 87.35 ± 4.25% and 90.08 ± 1.88% | Cell survival rate (Vero E6 cells; concentration 40 μM): 76.24 ± 8.59% and 77.22 ± 11.23% | Cell survival rate (Vero E6 cells; concentration 200 μM): 53.84 ± 3.48% and 71.58 ± 3.12% | inhibition at 0.064 µM (SARS-CoV-2 [10]; Severe acute respiratory syndrome coronavirus 2, Vero C1008, 1 h, read-out: Inhibition rate to SARS-CoV-2 induced cell death, drug 1 hour after infection, concentration 0.064 μM): 7.48 ± 11.8% | inhibition at 0.32 µM (SARS-CoV-2 [10]; Severe acute respiratory syndrome coronavirus 2, Vero C1008, 1 h, read-out: Inhibition rate to SARS-CoV-2 induced cell death, drug 1 hour after infection, concentration 0.32 μM): 46.3 ± 15.2% | inhibition at 1.6 µM (SARS-CoV-2 [10]; Severe acute respiratory syndrome coronavirus 2, Vero C1008, 1 h, read-out: Inhibition rate to SARS-CoV-2 induced cell death, drug 1 hour after infection, concentration 1.6 μM): 61.5 ± 6.96% | inhibition at 8 µM (SARS-CoV-2 [10]; Severe acute respiratory syndrome coronavirus 2, Vero C1008, 1 h, read-out: Inhibition rate to SARS-CoV-2 induced cell death, drug 1 hour after infection, concentration 8 μM): 73.4 ± 3.67% | inhibition at 40 µM (SARS-CoV-2 [10]; Severe acute respiratory syndrome coronavirus 2, Vero C1008, 1 h, read-out: Inhibition rate to SARS-CoV-2 induced cell death, drug 1 hour after infection, concentration 40 μM): 91.2 ± 9.91% | inhibition at 200 µM (SARS-CoV-2 [10]; Severe acute respiratory syndrome coronavirus 2, Vero C1008, 1 h, read-out: Inhibition rate to SARS-CoV-2 induced cell death, drug 1 hour after infection, concentration 200 μM): 100 ± 9.98% | IC50 (SARS-CoV-2 [10]; Severe acute respiratory syndrome coronavirus 2, Vero C1008, addition of the drug after infection): 825 ± 128 nM | inhibition at 0.32 µM (SARS-CoV-2 [11]; Severe acute respiratory syndrome coronavirus 2, Vero C1008, read-out: Inhibition rate to SARS-CoV-2 induced cell death, simultaneous addition, concentration 0.32 μM): 21.3 ± 12.8% | inhibition at 1.6 µM (SARS-CoV-2 [11]; Severe acute respiratory syndrome coronavirus 2, Vero C1008, read-out: Inhibition rate to SARS-CoV-2 induced cell death, simultaneous addition, concentration 1.6 μM): 56 ± 7.66% | inhibition at 8 µM (SARS-CoV-2 [11]; Severe acute respiratory syndrome coronavirus 2, Vero C1008, read-out: Inhibition rate to SARS-CoV-2 induced cell death, simultaneous addition, concentration 8 μM): 89.2 ± 1.29% | inhibition at 40 µM (SARS-CoV-2 [11]; Severe acute respiratory syndrome coronavirus 2, Vero C1008, read-out: Inhibition rate to SARS-CoV-2 induced cell death, simultaneous addition, concentration 40 μM): 95.8 ± 8.77% | inhibition at 200 µM (SARS-CoV-2 [11]; Severe acute respiratory syndrome coronavirus 2, Vero C1008, read-out: Inhibition rate to SARS-CoV-2 induced cell death, simultaneous addition, concentration 200 μM): 98.9 ± 3.47% | IC50 (SARS-CoV-2 [11]; Severe acute respiratory syndrome coronavirus 2, Vero C1008, simultaneous addition of the drug and virus): 1120 ± 52 nM | IC50 (SARS-CoV-2 [11]; [21]): 1160 nM and 1080 nM | TI (CC50/IC50) (SARS-CoV-2 [11]; [21]): > 178.89 | Inhibition rate to SARS-CoV-2 induced cell death (SARS-CoV-2 [11]; [20]): 2.80 ± 2.11% and 9.23 ± 5.11% | Inhibition rate to SARS-CoV-2 induced cell death (SARS-CoV-2 [11]; concentration 0.32 μM, 0.32 µM): 26.39 ± 6.35% | Inhibition rate to SARS-CoV-2 induced cell death (SARS-CoV-2 [11]; concentration 1.6 μM, 1.6 µM): 59.24 ± 13.49% | Inhibition rate to SARS-CoV-2 induced cell death (SARS-CoV-2 [11]; concentration 8 μM, 8 µM): 78.78 ± 9.66% | Inhibition rate to SARS-CoV-2 induced cell death (SARS-CoV-2 [11]; concentration 40 μM, 40 µM): 91.04 ± 3.06% | Inhibition rate to SARS-CoV-2 induced cell death (SARS-CoV-2 [11]; concentration 200 μM, 200 µM): 94.82 ± 0.89%

CCN(CC)CCOCCOC(=O)C1(c2ccccc2)CCCC1 [pentoxyverine citrate]
Cough incubation period [12]: 26.3 ± 3.3 s | Frequency of cough [12]: 55.8 ± 14.7 time/2 min | Cough incubation period [13]: 23.3 ± 4.2 s | Frequency of cough [13]: 40.6 ± 12.5 time/2 min

CC(=O)Oc1ccccc1C(=O)O [aspirin]
Temperature difference (ΔT) ([14]; 1 h after LPS): 0.10 ± 0.34 °C | Temperature difference (ΔT) ([14]; 2 h after LPS): 0.43 ± 0.29 °C | Temperature difference (ΔT) ([14]; 3 h after LPS): 0.42 ± 0.24 °C | Temperature difference (ΔT) ([14]; 4 h after LPS): 0.46 ± 0.34 °C | Temperature difference (ΔT) ([14]; 5 h after LPS): 0.79 ± 0.17 °C | Temperature difference (ΔT) ([14]; 6 h after LPS): 0.88 ± 0.18 °C | Temperature difference (ΔT) ([14]; 7 h after LPS): 0.53 ± 0.24 °C

OO [Example H2O2, H2O2]
Inhibition rate (killing effect) (SARS-CoV-2 [15]; 0.01% incubated with virus 0 min): 82.13 ± 8.64% and 92.94 ± 6.31% | Inhibition rate (killing effect) (SARS-CoV-2 [15]; 0.01% incubated with virus 5 min): 98.16 ± 18.42% and 99.25 ± 2.95% | Inhibition rate (killing effect) (SARS-CoV-2 [15]; 0.01% incubated with virus 10 min): 89.87 ± 7.26% and 98.25 ± 2.36% | Inhibition rate (killing effect) (SARS-CoV-2 [15]; 0.01% incubated with virus 30 min): 102.74 ± 8.56% and 102.50 ± 14.39% | Inhibition rate (killing effect) (SARS-CoV-2 [15]; 0.01% incubated with virus 60 min): 95.28 ± 10.93% and 101.35 ± 11.45%
